Where “and” joins values, the source holds several entries; their conditions need not be identical. Identical values can stand only once.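 Dose response: 5 concentrations. Exposure: 48 h. Format: 96-well plates. Endpoint: linear interpolation; highest concentration if not reached. GI50 is the concentration that inhibits growth by half. Definition used: TGI = concentration required for complete inhibition of growth.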 Some results are limits rather than exact numbers.

The experiment relates to MDA-MB-468 breast. Briefly: DTP human tumour cell line panel, 48 h.
Regarding `O=C(NNc1nc(Cl)nc(N2CCN(C(c3ccccc3)c3ccccc3)CC2)n1)c1ccccc1`, the GI50 was 1.9 µM and the TGI came to 6.03 µM.
`CCN(CC)CCOc1nc2ccc(OC)cc2c2c1-c1ccc(OC)cc1C2=O`: the GI50 was 3.37 µM and the total growth inhibition concentration (TGI) came to 21.7 µM.
For the molecule `COc1ccc(-c2nn3ncccc3c2-c2ccnc(Nc3ccc(Cl)c(C(F)(F)F)c3)n2)cc1`, the GI50 was 5.81 µM and the TGI is > 20.9 µM.
As for `CN(C)c1cccc2c(S(=O)(=O)N[C@H]3CC[C@H]4[C@@H]5CCc6cc(O)ccc6[C@H]5CC[C@]34C)cccc12`, the GI50 was 2.1 µM and the TGI turned out to be 9.71 µM.
In the case of `COc1cc(/C(C#N)=C/c2ccc3c(c2OC)OCO3)cc2c1OCO2`, the GI50 is 0.0592 µM and the TGI was determined as 2.07 µM.
The matching figures for `CC(=O)O[C@H]1CC[C@@]2(C)C(=CC[C@@H]3[C@@H]2CC[C@]2(C)C(c4cccnc4)=CC[C@@H]32)C1`: 2.62 µM and 17.5 µM.
Consider `COCCOc1ccc2ncc(C#Cc3cncc(C(=O)Nc4ccc(CN5CCN(C)CC5)c(C(F)(F)F)c4)c3)n2n1`, for which the GI50 was 0.988 µM and the TGI was 2.8 µM.
As for `COc1cc(-c2nn(-c3ccc(NC(=O)c4ccc(Cl)c(Cl)c4)cc3)cc2-c2ccncc2)ccc1Cl`, the GI50 was 4.35 µM and the TGI is > 100 µM.
With `CNc1ccc2nc3ccc(=[N+](C)C)cc-3sc2c1`, the GI50 is 0.801 µM and 0.542 µM; the TGI was 2.89 µM and 3.05 µM.
In the case of `O=c1oc2cc(OS(=O)(=O)c3ccc(F)cc3)ccc2c2c1CCCCC2`, the GI50 was 3.87 µM and the TGI was > 100 µM.

By GI50 is commonly meant the concentration giving 50% growth inhibition. By TGI is commonly meant the concentration giving total growth inhibition. The low end stands for greater sensitivity of the cells, the high end for lower sensitivity of the cells.

Source of the values: PubChem BioAssay (NCI).
